# Measured values reported in ChEMBL document CHEMBL5465560, “Selectivity Literature for EUbOPEN Chemogenomic Library” (2024).
# Experiments:
# [1] = target: Rho-associated protein kinase 1 (Homo sapiens) (UniProt Q13464); experiment: Selectivity interaction (Kinase panel (Z-LYTE Assay)) EUB0001632a ROCK1; conditions: at 10 µM
# [2] = target: Tyrosine-protein kinase ABL2 (Homo sapiens, UniProt P42684); experiment: Selectivity interaction (KinomeScan (DiscoverX)) EUB0000666a ABL2; conditions: at 10 µM
# [3] = target: Dual specificity mitogen-activated protein kinase kinase 2 (Homo sapiens) (UniProt P36507); experiment: Selectivity interaction (KinomeScan (DiscoverX)) EUB0000607a MAP2K2; conditions: at 10 µM
# [4] = target: Cyclin-dependent kinase-like 3 (Homo sapiens) (UniProt Q8IVW4); experiment: Selectivity interaction (KinomeScan (DiscoverX)) EUB0000607a CDKL3; conditions: at 10 µM
# [5] = target: T1, cGMP-dependent protein kinase 1 (Homo sapiens) (UniProt Q13976); experiment: Selectivity interaction (Upstate Kinase Profiler service (Millipore)) EUB0000056c PRKG1; conditions: at 1 µM
# T1 sequence (whole entry): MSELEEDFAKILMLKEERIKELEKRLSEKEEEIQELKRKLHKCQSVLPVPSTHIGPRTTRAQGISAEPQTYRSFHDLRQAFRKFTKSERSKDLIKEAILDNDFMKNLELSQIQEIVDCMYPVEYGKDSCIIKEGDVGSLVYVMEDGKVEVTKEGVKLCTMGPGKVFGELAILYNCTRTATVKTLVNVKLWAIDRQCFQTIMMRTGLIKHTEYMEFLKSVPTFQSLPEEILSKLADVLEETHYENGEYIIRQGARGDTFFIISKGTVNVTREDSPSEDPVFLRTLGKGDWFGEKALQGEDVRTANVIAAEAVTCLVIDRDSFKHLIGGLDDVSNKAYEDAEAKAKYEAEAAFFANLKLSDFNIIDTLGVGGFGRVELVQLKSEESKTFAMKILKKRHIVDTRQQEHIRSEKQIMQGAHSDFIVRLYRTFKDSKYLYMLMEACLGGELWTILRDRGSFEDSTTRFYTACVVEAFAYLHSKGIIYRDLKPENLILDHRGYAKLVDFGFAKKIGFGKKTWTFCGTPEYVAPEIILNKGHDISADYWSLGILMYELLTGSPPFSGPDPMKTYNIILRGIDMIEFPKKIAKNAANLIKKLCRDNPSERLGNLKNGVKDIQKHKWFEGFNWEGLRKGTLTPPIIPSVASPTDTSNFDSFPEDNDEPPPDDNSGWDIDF
# [6] = target: T2, Beta-adrenergic receptor kinase 1 (Homo sapiens) (UniProt P25098); experiment: Selectivity interaction (ActivX KiNativ screen (kinase selectivity in THP-1 cell lysates)) EUB0000639a ADRBK1; format: subcellular; conditions: lysate
# T2 sequence (whole entry): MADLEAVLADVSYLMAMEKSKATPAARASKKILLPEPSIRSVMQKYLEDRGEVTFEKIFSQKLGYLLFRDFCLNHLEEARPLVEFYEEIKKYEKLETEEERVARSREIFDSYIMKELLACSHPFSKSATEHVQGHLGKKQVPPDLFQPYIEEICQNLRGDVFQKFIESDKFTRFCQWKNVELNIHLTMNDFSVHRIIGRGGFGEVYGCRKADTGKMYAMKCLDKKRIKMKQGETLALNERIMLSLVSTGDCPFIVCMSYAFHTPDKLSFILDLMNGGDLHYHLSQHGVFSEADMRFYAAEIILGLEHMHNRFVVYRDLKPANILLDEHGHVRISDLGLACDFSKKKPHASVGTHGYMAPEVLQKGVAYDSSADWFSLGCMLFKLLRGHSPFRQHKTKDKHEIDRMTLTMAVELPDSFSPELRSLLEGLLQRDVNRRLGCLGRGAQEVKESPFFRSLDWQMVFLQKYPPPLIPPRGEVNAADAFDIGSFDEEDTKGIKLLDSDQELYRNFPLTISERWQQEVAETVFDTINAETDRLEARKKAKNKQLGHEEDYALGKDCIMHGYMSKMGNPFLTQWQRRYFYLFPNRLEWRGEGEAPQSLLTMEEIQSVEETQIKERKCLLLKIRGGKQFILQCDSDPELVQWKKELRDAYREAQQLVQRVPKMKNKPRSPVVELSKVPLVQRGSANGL
# [7] = target: Ribosomal protein S6 kinase alpha-3 (Homo sapiens, UniProt P51812); experiment: Selectivity interaction (Kinase panel (Invitrogen)) EUB0000639a RPS6KA3; conditions: at 200 nM
# [8] = target: Casein kinase I isoform alpha (Homo sapiens, UniProt P48729); experiment: Selectivity interaction (ActivX KiNativ screen (kinase selectivity in THP-1 cell lysates)) EUB0000639a CSNK1A1; format: subcellular; conditions: lysate
# [9] = target: T3, Serine/threonine-protein kinase ULK3 (Homo sapiens) (UniProt Q6PHR2); experiment: Selectivity interaction (KinomeScan (DiscoverX)) EUB0000695a ULK3; conditions: at 100 nM
# T3 sequence (whole entry): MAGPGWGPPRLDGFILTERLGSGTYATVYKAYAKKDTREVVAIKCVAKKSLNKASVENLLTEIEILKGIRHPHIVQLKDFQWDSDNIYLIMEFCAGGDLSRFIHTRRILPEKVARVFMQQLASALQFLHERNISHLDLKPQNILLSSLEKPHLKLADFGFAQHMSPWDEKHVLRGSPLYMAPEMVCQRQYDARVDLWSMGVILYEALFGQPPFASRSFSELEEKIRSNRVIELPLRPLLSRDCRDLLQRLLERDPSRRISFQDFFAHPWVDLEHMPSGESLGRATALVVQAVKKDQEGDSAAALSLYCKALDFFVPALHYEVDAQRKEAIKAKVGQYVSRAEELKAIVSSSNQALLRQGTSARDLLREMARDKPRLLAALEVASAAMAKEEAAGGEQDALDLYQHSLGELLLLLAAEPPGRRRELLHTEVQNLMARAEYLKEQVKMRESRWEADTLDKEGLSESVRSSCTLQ
# [10] = target: Serine/threonine-protein kinase mTOR (Homo sapiens, UniProt P42345); experiment: Selectivity interaction (KinomeScan (DiscoverX)) EUB0000695a MTOR; conditions: at 100 nM
# [11] = target: Death-associated protein kinase 1 (Homo sapiens, UniProt P53355); experiment: Selectivity interaction (Kinase panel (DSF assay)) EUB0001558a DAPK1
# [12] = target: Homeodomain-interacting protein kinase 1 (Homo sapiens, UniProt Q86Z02); experiment: Selectivity interaction (KinomeScan (DiscoverX)) EUB0000229b HIPK1; conditions: at 10 µM
# [13] = target: Microtubule-associated serine/threonine-protein kinase 1 (Homo sapiens) (UniProt Q9Y2H9); experiment: Selectivity interaction (KinomeScan (DiscoverX)) EUB0000229b MAST1; conditions: at 10 µM
# [14] = target: Serine/threonine-protein kinase tousled-like 2 (Homo sapiens) (UniProt Q86UE8); experiment: Selectivity interaction (KinomeScan (DiscoverX)) EUB0000092b TLK2; conditions: at 10 µM
# [15] = test system: Epidermal growth factor receptor (Homo sapiens), P00533 [UNDEFINED MUTATION]; experiment: Selectivity interaction (KinomeScan (DiscoverX)) EUB0001619a EGFR; conditions: at 1 µM
# Casein kinase I isoform alpha, sequence (P48729 2-337 limits assumed): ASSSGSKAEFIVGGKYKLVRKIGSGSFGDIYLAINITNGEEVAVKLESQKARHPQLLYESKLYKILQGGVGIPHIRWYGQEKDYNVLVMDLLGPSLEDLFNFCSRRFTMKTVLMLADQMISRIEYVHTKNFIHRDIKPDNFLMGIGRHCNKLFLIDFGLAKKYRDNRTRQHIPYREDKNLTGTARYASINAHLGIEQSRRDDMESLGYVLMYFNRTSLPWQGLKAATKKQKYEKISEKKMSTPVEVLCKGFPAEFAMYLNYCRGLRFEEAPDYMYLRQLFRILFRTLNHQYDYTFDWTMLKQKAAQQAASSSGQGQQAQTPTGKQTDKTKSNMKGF
# Ribosomal protein S6 kinase alpha-3, sequence (P51812 whole entry, canonical isoform): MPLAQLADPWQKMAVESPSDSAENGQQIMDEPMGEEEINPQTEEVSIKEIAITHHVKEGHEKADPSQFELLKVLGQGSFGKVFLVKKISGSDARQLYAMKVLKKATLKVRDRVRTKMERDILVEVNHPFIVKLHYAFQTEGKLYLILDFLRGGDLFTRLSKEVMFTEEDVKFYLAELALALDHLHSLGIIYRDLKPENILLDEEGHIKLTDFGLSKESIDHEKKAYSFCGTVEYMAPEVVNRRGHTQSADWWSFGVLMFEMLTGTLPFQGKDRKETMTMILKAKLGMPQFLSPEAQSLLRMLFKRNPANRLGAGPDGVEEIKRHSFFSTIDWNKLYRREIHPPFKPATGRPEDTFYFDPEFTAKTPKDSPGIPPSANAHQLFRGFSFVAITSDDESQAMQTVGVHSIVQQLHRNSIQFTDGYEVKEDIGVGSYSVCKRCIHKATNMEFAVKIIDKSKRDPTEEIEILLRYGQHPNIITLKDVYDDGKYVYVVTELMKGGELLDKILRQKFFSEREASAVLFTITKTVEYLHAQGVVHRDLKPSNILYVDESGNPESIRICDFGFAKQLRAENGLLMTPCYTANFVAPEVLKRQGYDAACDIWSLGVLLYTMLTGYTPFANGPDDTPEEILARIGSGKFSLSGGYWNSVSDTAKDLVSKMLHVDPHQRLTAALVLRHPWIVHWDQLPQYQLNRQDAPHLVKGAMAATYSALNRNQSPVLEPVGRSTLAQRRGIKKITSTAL
# Homeodomain-interacting protein kinase 1, sequence (Q86Z02 whole entry, looked up): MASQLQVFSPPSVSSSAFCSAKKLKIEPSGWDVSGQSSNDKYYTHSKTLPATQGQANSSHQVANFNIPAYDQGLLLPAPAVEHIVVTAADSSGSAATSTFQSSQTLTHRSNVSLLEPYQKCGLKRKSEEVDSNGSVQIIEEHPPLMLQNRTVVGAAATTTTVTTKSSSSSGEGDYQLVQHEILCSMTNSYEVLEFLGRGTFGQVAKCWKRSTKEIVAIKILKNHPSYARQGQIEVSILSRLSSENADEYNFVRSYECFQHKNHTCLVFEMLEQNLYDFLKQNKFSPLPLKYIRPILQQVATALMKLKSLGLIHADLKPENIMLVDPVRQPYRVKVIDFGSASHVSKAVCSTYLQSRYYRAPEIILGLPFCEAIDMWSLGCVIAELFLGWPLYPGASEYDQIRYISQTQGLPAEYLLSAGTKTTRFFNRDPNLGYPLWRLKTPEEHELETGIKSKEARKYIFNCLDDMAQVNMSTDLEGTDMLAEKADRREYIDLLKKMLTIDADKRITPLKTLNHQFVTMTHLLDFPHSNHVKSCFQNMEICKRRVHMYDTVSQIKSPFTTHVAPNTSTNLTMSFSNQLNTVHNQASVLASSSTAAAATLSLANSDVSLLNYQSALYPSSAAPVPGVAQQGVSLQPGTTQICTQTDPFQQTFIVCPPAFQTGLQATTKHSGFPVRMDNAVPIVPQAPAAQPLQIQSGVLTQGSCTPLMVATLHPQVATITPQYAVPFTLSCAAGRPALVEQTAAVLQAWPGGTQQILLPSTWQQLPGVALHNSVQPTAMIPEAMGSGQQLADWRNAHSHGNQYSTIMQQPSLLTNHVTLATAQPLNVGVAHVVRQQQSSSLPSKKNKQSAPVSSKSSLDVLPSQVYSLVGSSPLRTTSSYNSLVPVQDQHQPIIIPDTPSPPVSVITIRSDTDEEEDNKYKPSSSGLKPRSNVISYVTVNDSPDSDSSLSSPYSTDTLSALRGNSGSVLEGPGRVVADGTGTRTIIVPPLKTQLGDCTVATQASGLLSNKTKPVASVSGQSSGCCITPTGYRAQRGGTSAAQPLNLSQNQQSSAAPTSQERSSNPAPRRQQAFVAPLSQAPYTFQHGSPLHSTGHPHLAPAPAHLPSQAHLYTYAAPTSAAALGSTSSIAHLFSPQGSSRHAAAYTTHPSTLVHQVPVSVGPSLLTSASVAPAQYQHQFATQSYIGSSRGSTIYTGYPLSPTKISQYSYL
# Tyrosine-protein kinase ABL2, sequence (P42684 whole entry): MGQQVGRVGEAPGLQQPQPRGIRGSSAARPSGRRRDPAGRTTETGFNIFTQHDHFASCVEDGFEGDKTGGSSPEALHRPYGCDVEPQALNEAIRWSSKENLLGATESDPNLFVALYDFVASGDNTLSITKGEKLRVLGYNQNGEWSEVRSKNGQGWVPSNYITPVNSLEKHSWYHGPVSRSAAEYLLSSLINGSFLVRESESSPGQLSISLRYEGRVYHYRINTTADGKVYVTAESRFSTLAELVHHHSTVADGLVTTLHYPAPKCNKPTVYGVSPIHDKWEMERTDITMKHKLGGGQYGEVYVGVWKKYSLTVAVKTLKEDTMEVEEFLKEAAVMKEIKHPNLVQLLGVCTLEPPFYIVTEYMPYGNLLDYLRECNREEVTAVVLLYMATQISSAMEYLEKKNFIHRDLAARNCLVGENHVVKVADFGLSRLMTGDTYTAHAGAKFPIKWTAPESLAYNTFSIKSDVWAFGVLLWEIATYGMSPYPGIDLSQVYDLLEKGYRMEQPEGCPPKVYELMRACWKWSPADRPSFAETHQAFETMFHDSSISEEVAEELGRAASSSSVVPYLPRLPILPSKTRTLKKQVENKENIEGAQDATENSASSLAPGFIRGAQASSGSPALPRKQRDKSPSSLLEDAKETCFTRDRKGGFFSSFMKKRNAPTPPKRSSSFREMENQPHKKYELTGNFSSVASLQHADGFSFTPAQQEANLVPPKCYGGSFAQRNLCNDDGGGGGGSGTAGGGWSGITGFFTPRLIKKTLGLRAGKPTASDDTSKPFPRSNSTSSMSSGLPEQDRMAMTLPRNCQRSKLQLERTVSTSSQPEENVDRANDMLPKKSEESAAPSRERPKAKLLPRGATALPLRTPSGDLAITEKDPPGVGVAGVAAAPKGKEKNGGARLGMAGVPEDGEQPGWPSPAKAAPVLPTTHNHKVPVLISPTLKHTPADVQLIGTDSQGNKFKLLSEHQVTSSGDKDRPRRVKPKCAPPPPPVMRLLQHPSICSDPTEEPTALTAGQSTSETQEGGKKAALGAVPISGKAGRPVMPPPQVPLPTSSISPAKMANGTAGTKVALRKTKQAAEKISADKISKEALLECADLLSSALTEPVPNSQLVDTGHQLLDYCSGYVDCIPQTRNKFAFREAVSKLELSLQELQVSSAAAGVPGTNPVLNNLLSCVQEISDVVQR
# Microtubule-associated serine/threonine-protein kinase 1 (Homo sapiens), sequence (Q9Y2H9 whole entry, looked up): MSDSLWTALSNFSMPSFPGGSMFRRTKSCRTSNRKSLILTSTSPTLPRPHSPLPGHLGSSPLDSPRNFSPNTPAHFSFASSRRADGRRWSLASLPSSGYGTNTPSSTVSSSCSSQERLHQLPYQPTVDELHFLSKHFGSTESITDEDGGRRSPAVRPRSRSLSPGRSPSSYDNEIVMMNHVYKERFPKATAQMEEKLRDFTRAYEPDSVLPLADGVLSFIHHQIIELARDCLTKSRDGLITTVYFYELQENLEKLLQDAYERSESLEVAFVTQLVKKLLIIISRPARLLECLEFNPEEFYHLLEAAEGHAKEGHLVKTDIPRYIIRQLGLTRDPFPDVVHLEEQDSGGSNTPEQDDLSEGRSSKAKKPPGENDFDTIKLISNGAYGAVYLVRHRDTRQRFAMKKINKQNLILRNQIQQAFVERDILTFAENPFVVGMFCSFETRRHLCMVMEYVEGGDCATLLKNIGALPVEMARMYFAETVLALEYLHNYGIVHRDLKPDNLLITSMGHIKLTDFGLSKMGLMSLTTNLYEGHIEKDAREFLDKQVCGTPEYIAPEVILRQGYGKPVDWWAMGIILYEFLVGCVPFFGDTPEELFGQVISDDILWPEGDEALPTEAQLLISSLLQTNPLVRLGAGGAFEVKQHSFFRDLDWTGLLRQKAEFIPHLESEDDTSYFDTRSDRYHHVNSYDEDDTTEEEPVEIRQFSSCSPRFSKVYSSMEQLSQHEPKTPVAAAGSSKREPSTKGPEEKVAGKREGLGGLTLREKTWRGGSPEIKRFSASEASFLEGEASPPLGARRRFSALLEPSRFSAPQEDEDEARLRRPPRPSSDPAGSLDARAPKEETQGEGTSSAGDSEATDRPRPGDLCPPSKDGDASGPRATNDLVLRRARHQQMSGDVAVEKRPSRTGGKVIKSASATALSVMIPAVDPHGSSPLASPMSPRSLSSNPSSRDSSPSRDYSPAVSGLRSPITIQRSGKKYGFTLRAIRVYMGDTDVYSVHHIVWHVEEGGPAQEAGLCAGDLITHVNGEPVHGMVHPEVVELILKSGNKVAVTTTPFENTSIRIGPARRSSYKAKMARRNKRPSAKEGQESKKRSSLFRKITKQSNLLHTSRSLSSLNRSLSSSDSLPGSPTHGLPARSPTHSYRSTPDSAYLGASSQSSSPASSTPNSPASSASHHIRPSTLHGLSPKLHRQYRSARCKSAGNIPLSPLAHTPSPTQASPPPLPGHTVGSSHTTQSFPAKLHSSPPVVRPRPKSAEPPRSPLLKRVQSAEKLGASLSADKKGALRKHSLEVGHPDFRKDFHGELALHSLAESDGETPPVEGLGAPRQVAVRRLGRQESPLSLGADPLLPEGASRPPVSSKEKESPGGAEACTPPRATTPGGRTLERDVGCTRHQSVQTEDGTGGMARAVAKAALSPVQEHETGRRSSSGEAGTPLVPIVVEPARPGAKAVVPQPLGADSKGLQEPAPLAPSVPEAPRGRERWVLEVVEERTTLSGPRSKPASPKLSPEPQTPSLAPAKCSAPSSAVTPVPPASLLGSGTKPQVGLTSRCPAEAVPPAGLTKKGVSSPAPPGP
compound,measurement,setting,value
Cn1cc(-n2cnc3c(NCc4nc5cc(Cl)c(Cl)cc5[nH]4)nc(N4CCOCC4)nc32)cn1,% of control,[1],-2.74%
O=C(NOC[C@H](O)CO)c1ccc(F)c(F)c1Nc1ccc(I)cc1F,% of control,[2],90%
CNC(=O)Nc1ccc(-c2nc(N3CC4CCC(C3)O4)c3cnn(C4CCC5(CC4)OCCO5)c3n2)cc1,% of control,[3],100%
same,% of control,[4],95%
Cc1ccc(-c2ccc3c(ccc4sc5c(c43)NC[C@@H](C)NC5=O)n2)cn1,% of inhibition,[5],3%
CC[C@@H]1[C@H](F)C(=O)N[C@@H]1COc1nccc2cc(C(N)=O)c(OC)cc12 [ZIMLOVISERTIB],% of inhibition,[6]; at 0.01 µM,5.6%
same,% of inhibition,[6]; at 0.04 µM,8%
same,% of inhibition,[6]; at 0.2 µM,9.7%
same,% of inhibition,[6]; at 1 µM,14.3%
same,% of inhibition,[6]; at 5 µM,12.1%
same,% of inhibition,[7],-6.31%
same,% of inhibition,[8]; at 0.01 µM,-11.5%
same,% of inhibition,[8]; at 0.04 µM,-1%
same,% of inhibition,[8]; at 0.2 µM,-9.3%
same,% of inhibition,[8]; at 1 µM,-0.4%
same,% of inhibition,[8]; at 5 µM,16.4%
Cc1cc(F)c(C(=O)Nc2cccc(-c3nncn3C(C)C)n2)cc1-n1cnc(C2CC2)c1,% of control,[9],80%
same,% of control,[10],100%
CC(C)(O)[C@H](F)CN1Cc2cc(NC(=O)c3cnn4cccnc34)c(N3CCOCC3)cc2C1=O,dTM,[11],0.1 K
COc1cc(N(C)c2ccnc3ccc(C(F)(F)F)cc23)cc(OC)c1OC,% binding,[12],77%
same,% binding,[13],85%
CCC(=O)N1CCN(c2ccc(-n3c(=O)ccc4cnc5ccc(-c6cnc7ccccc7c6)cc5c43)cc2C(F)(F)F)CC1,% of control,[14],100%
N#Cc1cccc(-c2c[nH]c3ncnc(N4CCOCC4)c23)c1,% of control,[15],82%
